In US4492650A, “A54556 Antibiotics and process for production thereof” (Eli Lilly and Company, priority 1982, dated 1985):
In brackets after ≈: the same amount, converted by molar mass. Several values for one entry are separate records, joined by “and”; a condition that tells them apart may be missing. Equal values may be shown once. Read-outs that look alike come from different tables or passages of the source. Bridge positions count the residues as written; N and C are the ends. Square brackets hold non-standard residues; d marks the D form. Peptide text beside a SMILES is read from it. * marks the point of attachment. ξ: configuration not given here. Octatrienoyl(2E,4E,6E) = C/C=C/C=C/C=C/C(=O)*; Hexadienoyl(2E,4E) = C/C=C/C=C/C(=O)*; ξPro(4ξ-Me) = CC1CNC(C(=O)O)C1; NMeA = CN[CH](C)C(=O)O

Legend:
[1] = tested on: Staphylococcus aureus 3055; settings: benzylpenicillin-susceptible
[2] = tested on: anaerobic bacteria; experiment: Activity against anaerobic bacteria; format: cell-based; settings: agar-dilution method
[3] = tested on: Peptococcus asaccharolyticus 1302; experiment: MIC, agar-dilution method; format: cell-based; settings: Peptoniphilus asaccharolyticus
[4] = tested on: Bacteroides vulgatis 1211; experiment: MIC, agar-dilution method; format: cell-based
[5] = tested on: Staphylococcus aureus 3074; settings: Table 12, benzylpenicillin resistant
[6] = tested on: Bacteroides melaninogenicus 2736; experiment: MIC, agar-dilution method; format: cell-based
Excerpt: (§1) Antibiotic A54556 factors A, B, C, D, E, F, G, and H have been tested and found to be active against a number of anaerobic bacteria, as recorded in Table 14, which follows, the MIC values having been determined by the agar-dilution method.

[7] = tested on: Bacteroides fragilis 1936B; experiment: MIC, agar-dilution method; format: cell-based
Excerpt: as §1

[8] = tested on: Clostridium septicum 1128; experiment: MIC, agar-dilution method; format: cell-based
Excerpt: as §1

[9] = tested on: Eubacterium aerofaciens 1235; experiment: MIC, agar-dilution method; format: cell-based; settings: Collinsella aerofaciens
Excerpt: as §1

[10] = tested on: Propionibacterium acnes 79; experiment: MIC, agar-dilution method; format: cell-based; settings: Cutibacterium acnes
Excerpt: as §1

[11] = tested on: Peptostreptococcus intermedius 1264; experiment: MIC, agar-dilution method; format: cell-based
Excerpt: as §1

[12] = tested on: Bacteroides thetaiotaomicron 1438; experiment: MIC, agar-dilution method; format: cell-based
Excerpt: as §1

[13] = tested on: Bacteroides melaninogenicus 1856/28; experiment: MIC, agar-dilution method; format: cell-based; settings: Prevotella intermedia
Excerpt: as §1

[14] = tested on: Bacteroides fragilis 111; experiment: MIC, agar-dilution method; format: cell-based
Excerpt: as §1

[15] = tested on: Fusobacterium necrophorum 6054A; experiment: MIC, agar-dilution method; format: cell-based
Excerpt: as §1

[16] = tested on: Clostridium difficile 2994; experiment: MIC, agar-dilution method; format: cell-based; settings: Clostridioides difficile
Excerpt: as §1

[17] = tested on: Bacteroides fragilis 1877; experiment: MIC, agar-dilution method; format: cell-based
Excerpt: as §1

[18] = tested on: Bacteroides corrodens 1874; experiment: MIC, agar-dilution method; format: cell-based; settings: Eikenella corrodens
[19] = tested on: Streptococcus pyogenes (Group A) C203
[20] = tested on: Streptococcus sp. (Group D) 9960; experiment: Disc-plate sensitivity; settings: read-out: Zone diameter
[21] = Electrometric titration; format: physicochemical; settings: 66 percent dimethylformamide in water
Excerpt: Antibiotic A54556 factor A is a tan, amorphous solid. […] As determined by electron impact and field desorption mass spectrometry, A54556 factor A has a molecular weight of 718.

[22] = tested on: Streptococcus sp. (Group D) X66; experiment: Disc-plate sensitivity; format: cell-based; settings: second test, Table 13; for zone of inhibition at 30 µg/disc / zone of inhibition at 300 µg/disc: Streptococcus
[23] = tested on: Fusobacterium symbiosum 1470; experiment: MIC, agar-dilution method; format: cell-based
[24] = tested on: Clostridium perfringens 81; experiment: microbe, parasite or virus in culture; format: cell-based
[25] = tested on: Peptostreptococcus anaerobius 1428; experiment: MIC, agar-dilution method; format: cell-based
[26] = tested on: experimental bacterial infections; experiment: In vivo antimicrobial activity against experimental bacterial infections; settings: mice, subcutaneously
Protocol: (§2) When two doses of test compound were administered subcutaneously to mice in illustrative infections, the activity is measured as an ED50 value [effective does in mg./kg. to protect fifty percent of the test animals: See Warren Wick et al., J. Bacteriol. 81, 233-235 (1961)]. The ED50 values for these antibiotic A54556 factors are recorded in Table 15, which follows.

[27] = tested on: S. pyogenes; experiment: In vivo protection against experimental bacterial infection in mice; settings: Streptococcus pyogenes, sc, two doses subcutaneously
Protocol: as §2

[28] = tested on: Staphylococcus aureus 3130; settings: Table 12, benzylpenicillin resistant, methicillin resistant
[29] = tested on: Streptococcus pneumoniae Park I
[30] = tested on: Staphylococcus aureus V41; settings: second test, Table 13, benzylpenicillin resistant
[31] = tested on: Peptococcus prevoti 1281; experiment: MIC, agar-dilution method; format: cell-based
[32] = tested on: Staphylococcus epidermidis EPI1; settings: second test, Table 13
[33] = Solubility; settings: for solubility in organic solvents: lower alcohols (methyl, ethyl, isopropyl, n-propyl, n-butyl), acetone, ethyl acetate, tetrahydrofuran, pyridine, dimethyl sulfoxide
[34] = 30 mcg./disc, second test, Table 13
[35] = 300 mcg./disc, second test, Table 13
[36] = 30 mcg./disc, second test, Table 13, listed as A
[37] = read-out: Zone diameter, 30 mcg./disc
[38] = read-out: Zone diameter, 300 mcg./disc
[39] = 300 mcg./disc, second test, Table 13, listed as C
[40] = 30 mcg./disc, second test, Table 13, listed as E

C/C=C/C=C/C=C/C(=O)NC(Cc1ccccc1)C(=O)NC1COC(=O)C2CCCN2C(=O)C(C)NC(=O)C(C)N(C)C(=O)C2CC(C)CN2C1=O (stereo not shown) [Factor A] ({Octatrienoyl(2E,4E,6E)}-FS[ξPro(4ξ-Me)][NMeA]AP; ester 2-C; configuration not given here)
Zone diameter ([1]; 30 mcg./disc, Table 12): 19.2 mm.
Zone diameter [1, 34]: 19 mm. and 21 mm.
Zone diameter ([1]; 300 mcg./disc, Table 12): 24.3 mm.
Zone diameter [1, 35]: 24 mm.
Zone diameter ([1]; 300 mcg./disc, second test, Table 13, listed as A): 28 mm.
activity against a number of anaerobic bacteria [2]: active
MIC [3]: > 128 µg/mL
MIC [4]: > 128 µg/mL
Zone diameter ([5]; 30 mcg./disc): 18.3 mm.
Zone diameter ([5]; 300 mcg./disc): 20.9 mm.
MIC [6]: > 128 µg/mL
MIC [7]: > 128 µg/mL
MIC [8]: > 128 µg/mL
MIC [9]: > 128 µg/mL
MIC [10]: > 128 µg/mL
MIC [11]: > 128 µg/mL
MIC [12]: > 128 µg/mL
MIC [13]: > 128 µg/mL
MIC [14]: > 128 µg/mL
MIC [15]: > 128 µg/mL
MIC [16]: > 128 µg/mL
MIC [17]: > 128 µg/mL
MIC [18]: > 128 µg/mL
Zone diameter ([19]; 30 mcg./disc, Table 12): 24.0 mm.
Zone diameter [19, 34]: 25 mm.
Zone diameter [19, 36]: 20 mm.
Zone diameter ([19]; 300 mcg./disc, Table 12): 30.0 mm.
Zone diameter [19, 35]: 30 mm. and 32 mm.
zone of inhibition at 30 µg/disc [20]: 22.4 mm
zone of inhibition at 300 µg/disc [20]: 28 mm
titratable groups [21]: no titratable groups
Zone diameter ([22]; 30 mcg./disc, listed as A): 28 mm.
Zone diameter ([22]; 300 mcg./disc): 29 mm.
zone of inhibition at 30 µg/disc [22, 37]: 23 mm
zone of inhibition at 300 µg/disc [22, 38]: 33 mm
MIC [23]: > 128 µg/mL
MIC [24]: > 128 µg/mL
MIC [25]: > 128 µg/mL
in vivo antimicrobial activity against experimental bacterial infections [26]: have shown in vivo antimicrobial activity
ED50 [27]: > 70 mg/kg
Zone diameter ([28]; 30 mcg./disc): 21.7 mm.
Zone diameter ([28]; 300 mcg./disc): 25.5 mm.
Zone diameter ([29]; 30 mcg./disc, Table 12): 26.0 mm.
Zone diameter [29, 36]: 18 mm. and 22 mm.
Zone diameter ([29]; 300 mcg./disc, Table 12): 34.0 mm.
Zone diameter [29, 35]: 33 mm. and 35 mm.
Zone diameter ([30]; 30 mcg./disc): 20 mm. and 22 mm.
Zone diameter ([30]; 300 mcg./disc): 27 mm. and 33 mm.
MIC [31]: > 128 µg/mL
Zone diameter ([32]; 30 mcg./disc): 20 mm.
Zone diameter ([32]; 300 mcg./disc): 22 mm. and 28 mm.
solubility in organic solvents [33]: soluble
solubility in water ([33]; water): insoluble

C/C=C/C=C/C(=O)NC(Cc1ccccc1)C(=O)NC1COC(=O)C2CCCN2C(=O)C(C)NC(=O)C(C)N(C)C(=O)C2CC(C)CN2C1=O (stereo not shown) [Factor C] ({Hexadienoyl(2E,4E)}-FS[ξPro(4ξ-Me)][NMeA]AP; ester 2-C; configuration not given here)
Zone diameter [1, 34]: 21 mm. and 23 mm.
Zone diameter [1, 35]: 25 mm. and 31 mm.
activity against a number of anaerobic bacteria [2]: active
MIC ([3]; agar-dilution, read-out: MIC): 16 µg/mL (≈ 23.1 µM)
MIC [4]: > 128 µg/mL
MIC [6]: > 128 µg/mL
MIC [7]: > 128 µg/mL
MIC [8]: > 128 µg/mL
MIC [9]: > 128 µg/mL
MIC [10]: 32 µg/mL (≈ 46.2 µM)
MIC [11]: > 128 µg/mL
MIC [12]: > 128 µg/mL
MIC [13]: > 128 µg/mL
MIC [14]: > 128 µg/mL
MIC [15]: > 128 µg/mL
MIC [16]: > 128 µg/mL
MIC [17]: > 128 µg/mL
MIC [18]: > 128 µg/mL
Zone diameter [19, 34]: 22 mm. and 28 mm.
Zone diameter [19, 35]: 30 mm.
Zone diameter [19, 39]: 33 mm.
titratable groups [21]: no titratable groups
Zone diameter ([22]; 30 mcg./disc): 25 mm.
Zone diameter ([22]; 300 mcg./disc, listed as C): 35 mm.
zone of inhibition at 30 µg/disc ([22]; 30 mcg./disc, read-out: Zone diameter): 24 mm
zone of inhibition at 300 µg/disc ([22]; 300 mcg./disc, read-out: Zone diameter): 25 mm
MIC [23]: > 128 µg/mL
MIC [24]: > 128 µg/mL
MIC [25]: > 128 µg/mL
in vivo antimicrobial activity against experimental bacterial infections [26]: have shown in vivo antimicrobial activity
ED50 [27]: 11.1 mg/kg
Zone diameter [29, 34]: 25 mm. and 30 mm.
Zone diameter [29, 35]: 30 mm.
Zone diameter [29, 39]: 35 mm.
Zone diameter ([30]; 30 mcg./disc): 24 mm.
Zone diameter ([30]; 30 mcg./disc, listed as C): 21 mm.
Zone diameter ([30]; 300 mcg./disc): 30 mm. and 25 mm.
MIC [31]: > 128 µg/mL
Zone diameter ([32]; 30 mcg./disc): 21 mm. and 23 mm.
Zone diameter ([32]; 300 mcg./disc): 24 mm.
Zone diameter ([32]; 300 mcg./disc, listed as C): 26 mm.
solubility in organic solvents [33]: soluble

C/C=C/C=C/C(=O)NC(Cc1ccccc1)C(=O)NC1COC(=O)C2CCCN2C(=O)C(C)NC(=O)C(C)N(C)C(=O)C2CCCN2C1=O (stereo not shown) [Factor E] ({Hexadienoyl(2E,4E)}-FSP[NMeA]AP; ester 2-C; configuration not given here)
Zone diameter [1, 34]: 17 mm.
Zone diameter [1, 40]: 15 mm.
Zone diameter [1, 35]: 23 mm.
activity against a number of anaerobic bacteria [2]: active
MIC [3]: 64 µg/mL (≈ 94.3 µM)
MIC [4]: > 128 µg/mL
MIC [6]: > 128 µg/mL
MIC [7]: > 128 µg/mL
MIC [8]: > 128 µg/mL
MIC [9]: > 128 µg/mL
MIC [10]: > 128 µg/mL
MIC [11]: > 128 µg/mL
MIC [12]: > 128 µg/mL
MIC [13]: > 128 µg/mL
MIC [14]: > 128 µg/mL
MIC [15]: > 128 µg/mL
MIC [16]: > 128 µg/mL
MIC [17]: > 128 µg/mL
MIC [18]: > 128 µg/mL
Zone diameter [19, 40]: 20 mm. and 18 mm.
Zone diameter [19, 35]: 30 mm. and 24 mm.
titratable groups [21]: no titratable groups
Zone diameter ([22]; 30 mcg./disc, listed as E): 21 mm.
Zone diameter ([22]; 300 mcg./disc): 27 mm.
zone of inhibition at 30 µg/disc [22, 37]: 22 mm
zone of inhibition at 300 µg/disc [22, 38]: 28 mm
MIC [23]: 128 µg/mL (≈ 189 µM)
MIC [24]: > 128 µg/mL
MIC [25]: > 128 µg/mL
in vivo antimicrobial activity against experimental bacterial infections [26]: have shown in vivo antimicrobial activity
ED50 [27]: > 70 mg/kg
Zone diameter [29, 34]: 25 mm.
Zone diameter [29, 40]: 22 mm.
Zone diameter [29, 35]: 35 mm. and 28 mm.
Zone diameter ([30]; 30 mcg./disc): 17 mm.
Zone diameter ([30]; 30 mcg./disc, listed as E): 13 mm.
Zone diameter ([30]; 300 mcg./disc): 27 mm. and 23 mm.
MIC [31]: 128 µg/mL (≈ 189 µM)
Zone diameter ([32]; 30 mcg./disc, listed as E): 13 mm. and 11 mm.
Zone diameter ([32]; 300 mcg./disc): 25 mm. and 24 mm.
solubility in organic solvents [33]: soluble
